Results as given in ChEMBL document CHEMBL5724558, “Image-based profiling of drug vulnerabilities in CRC organoids” (2024).
Several values for one entry are separate records, joined by “and”; a condition that tells them apart may be missing. Identical values can stand only once.

Tests used:
Format in all cases: functional, Homo sapiens
Parameters in all cases: dose or concentration left out as unconfirmed
[1] = tested on: Colon cancer organoid; experiment: Image-based profiling of donated chemical probes and chemogenomic kinase set in O06 CRC organoid. Image analysis is performed on the sum area metric, and the data were normalized to the DMSO control. After imaging the organoid viability is measured using the OneGloEX Luciferase Assay System. The normalized viability data and sum area are reported.
[2] = tested on: Colon cancer organoid; experiment: Image-based profiling of donated chemical probes and chemogenomic kinase set in O21 CRC organoid. Image analysis is performed on the sum area metric, and the data were normalized to the DMSO control. After imaging the organoid viability is measured using the OneGloEX Luciferase Assay System. The normalized viability data and sum area are reported.
[3] = tested on: Colon cancer organoid; experiment: Image-based profiling of donated chemical probes and chemogenomic kinase set in O09 CRC organoid. Image analysis is performed on the sum area metric, and the data were normalized to the DMSO control. After imaging the organoid viability is measured using the OneGloEX Luciferase Assay System. The normalized viability data and sum area are reported.

Compound | Cell Viability ([1]; Replication number 1) | Cell Viability ([1]; Replication number 2) | Cell Viability ([2]; Replication number 1) | Cell Viability ([2]; Replication number 2) | Cell Viability ([3]; Replication number 1) | Cell Viability ([3]; Replication number 2)
O=C(NCc1ncc(C(F)(F)F)cc1Cl)c1ccc2c(c1)C1(CCS(=O)(=O)CC1)[C@@H](C1CC1)N2S(=O)(=O)c1ccc(F)cc1 [BAY-786] | 93.4369% and 85.4801% | 92.4233% and 87.6518% | 89.1117% and 93.1436% | 89.1705% and 87.7551% | 144.169% and 104.407% | 144.169% and 145.747%
COc1cc2c(cc1-c1c(C)noc1C)ncc1[nH]c(=O)n([C@H](C)c3ccccn3)c12 | 37.8038% and 58.2282% | 43.3272% and 66.9145% | 88.6726% and 67.015% | 110.558% and 99.8807% | 51.0073% and 39.6445% | 53.9016% and 48.1786%
O=C(NCCN1CCOCC1)c1ccc2c(c1)C(=O)c1ccc(Nc3ccc(F)c(NC(=O)c4ccccc4)c3)cc1CC2 [FS-694] | 84.5729% and 99.5951% | 109.979% and 139.596% | 104.56% and 105.311% | 87.9959% and 93.3039% | 75.6733% and 93.7852% | 52.7357% and 85.0515%
Cc1c(Oc2ccc(F)cc2)c(OC(C)C)nn1-c1ccc(C2CC2)cn1 [IPP/CNRS-A019] | 86.662% and 99.3522% | 111.4% and 120.615% | 82.2152% and 84.0306% | 88.4065% and 90.7546% | 105.275% and 104.102% | 106.079% and 88.8184%
Cn1nc(C(F)(F)F)cc1-c1cnc(N2CCc3cc(S(=O)(=O)Nc4c(F)cc(Cl)cc4F)cc(N4CCCC4=O)c32)nc1 [TP-020] | 97.5497% and 105.152% | 112.528% and 137.4% | 100.4% and 89.0686% | 74.5209% and 80.6122% | 176.236% and 116.591% | 145.95% and 107.484%
Cc1c(NC(=O)COc2ccc(Cl)cc2C(=O)c2cc(F)cc(C(F)(F)F)c2)ccc(C(=O)O)c1F [BI 2540] | 58.8741% and 96.3504% | 87.0416% and 104.656% | 96.7046% and 115.044% | 105.62% and 95.2087% | 121.956% and 104.432% | 133.179% and 113.341%
Cc1cn(-c2cc(NC(=O)c3ccc4c(c3)CN(c3cncnc3)C[C@@H]4C)cc(C(F)(F)F)c2)cn1 | 59.0694% and 78.9076% | 95.3584% and 115.454% | 90.5152% and 91.8083% | 113.206% and 94.0752% | 138.868% and 108.886% | 120.836% and 109.134%
CCNC(=O)c1cc2c(N3CCOCC3C)ccnc2[nH]1 (stereo not given) | 98.3654% and 112.881% | 119.727% and 97.8383% | 130.503% and 111.772% | 91.1701% and 91.3265% | 68.1497% and 105.84% | 64.0482% and 77.4005%
C[C@@H]1CN(c2cc(-c3nn(C)c4ccc(OC5(C)CC5)cc34)ncn2)C[C@H](C)O1 [MLi-2-NC] | 109.32% and 103.981% | 134.588% and 115.132% | 92.869% and 94.89% | 95.8024% and 129.082% | 104.615% and 76.2145% | 63.1554% and 89.3757%
C[C@@H]1CCNC(=O)c2cc3ccc(C(=O)Nc4nc5ccccc5n4CCCN(C)C)cc3n21 | 118.285% and 99.4853% | 110.228% and 88.2262% | 69.4409% and 79.1638% | 71.3371% and 86.362% | 82.052% and 59.5917% | 80.614% and 53.9902%
O=C(Nc1cccnn1)N1CC(C/C=C/c2cncc(Oc3ccc(C(F)(F)F)cn3)n2)C1 | 109.538% and 100.234% | 99.7432% and 110.394% | 91.4572% and 89.6507% | 96.356% and 80.102% | 144.17% and 108.229% | 154.84% and 92.5885%
Cc1c(N2CCCC2)nc2ccc(Br)cc2c1C(=O)NC[C@H](CCC(=O)O)c1ccccc1Cl [BAY-6672] | 80.703% and 111.012% | 84.0903% and 90.3412% | 101.261% and 132.048% | 101.473% and 100.952% | 62.7098% and 89.8462% | 112.488% and 108.842%
Clc1cccc(-c2nnnn2Cc2cccnc2)c1Cl | 110.934% and 130.913% | 90.04% and 81.9662% | 103.002% and 95.4722% | 106.874% and 109.184% | 192.597% and 128.776% | 120.929% and 99.0142%
Cc1c(C(=O)O)cc(-c2ccc(C3CCNCC3)cc2)c2ccc(-c3ccc(C(F)(F)F)cc3)cc12.Cl | 120.986% and 114.413% | 106.141% and 127.102% | 85.8075% and 94.398% | 96.6667% and 83.1067% | 120.061% and 98.4744% | 101.967% and 96.9469%
Cl.O=C(O)c1cc(-c2ccc(C3CCNCC3)cc2)c2ccc(-c3ccc(C(F)(F)F)cc3)cc2c1 | 91.1935% and 100.081% | 81.9268% and 87.9385% | 122.525% and 121.681% | 120.065% and 115.738% | 82.2902% and 109.541% | 53.2933% and 84.4568%
COc1ccc(COc2ccc(Cc3cnc(N)nc3N)cc2OC)cc1 [GW632580X] | 58.2611% and 105.272% | 114.527% and 102.005% | 84.7531% and 94.7735% | 111.284% and 94.9982% | 97.2833% and 91.2576% | 140.582% and 107.98%
O=C(Nc1cccnn1)N1CCC(=Cc2cccc(Oc3ccc(C(F)(F)F)cn3)c2)CC1 | 84.0807% and 127.869% | 104.052% and 107.077% | 101.123% and 116.429% | 106.817% and 109.694% | 126.629% and 132.36% | 65.2365% and 71.2669%
CN1CCN(c2cnc3c(C4CCN(C(=O)c5ccc(OC(F)(F)F)cc5N)CC4)ncnc3c2)CC1 [BAY-885] | 84.7491% and 99.8381% | 93.9717% and 91.062% | 131.298% and 119.498% | 99.2561% and 98.9123% | 40.0205% and 84.5942% | 66.5359% and 88.2236%
CN([C@@H]1CCc2c(CC(=O)O)c3ccccc3n2C1)S(=O)(=O)c1ccc(F)cc1 [MK-7246] | 103.187% and 97.4239% | 129.375% and 117.264% | 86.5772% and 112.354% | 98.7828% and 96.4286% | 131.189% and 119.936% | 71.8556% and 75.9401%
COc1cc2c(NC3CCN(C(C)C)CC3)nc(N3CCC(F)(F)CC3)nc2cc1OCCCN1CCCC1 | 71.9409% and 120.564% | 77.7589% and 98.4599% | 89.3609% and 142.848% | 55.1916% and 97.1957% | 87.3897% and 128.439% | 117.725% and 126.861%
O=C(c1ccc(F)c(F)c1Nc1ccc(I)cc1F)N1CC(O)([C@@H]2CCCCN2)C1 [COBIMETINIB] | 2.921% and 4.652% | 3.136% and 6.437% | 18.944% and 20.5157% | 17.3316% and 26.4843% | 5.994% and 14.4616% | 
